{"source": "patent US10000484B2", "about": "“Inhibitors of the renal outer medullary potassim channel” (MERCK SHARP & DOHME CORP., priority 2013, dated 2018)", "data": [{"target": "T1, hROMK (hKir1.1) (Homo sapiens, UniProt P48048)", "T1 construct": "expressed in transfected cells", "T1 sequence (P48048 1-391)": "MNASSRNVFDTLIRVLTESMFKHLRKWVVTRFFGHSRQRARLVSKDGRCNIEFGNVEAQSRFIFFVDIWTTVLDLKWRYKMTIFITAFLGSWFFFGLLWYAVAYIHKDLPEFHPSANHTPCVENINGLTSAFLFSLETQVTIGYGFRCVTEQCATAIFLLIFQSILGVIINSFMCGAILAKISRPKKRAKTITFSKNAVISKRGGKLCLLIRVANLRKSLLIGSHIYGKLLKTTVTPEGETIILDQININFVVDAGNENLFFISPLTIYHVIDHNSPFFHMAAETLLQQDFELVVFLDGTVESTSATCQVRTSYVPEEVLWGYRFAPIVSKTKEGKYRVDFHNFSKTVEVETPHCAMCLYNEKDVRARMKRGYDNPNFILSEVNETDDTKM", "assay": "Thallium Flux Assay (ROMK channel functional thallium flux assay, FLIPR-Tetra)", "format": "cell-based", "details": "HEK293 cells stably expressing hROMK; 30 min incubation with compound", "protocol": "The following Thallium Flux Assay was performed on each of the final product compounds in the Examples. When the final product of an Example was an HCl salt, the salt was run in the Assay.\nHEK293 cells stably expressing hROMK (hKir1.1) were grown at 37° C. in a 10% CO2 humidified incubator in complete growth media: Dulbecco's Modified Eagle Medium supplemented with non-essential amino acids, Penicillin/Streptomycin/Glutamine, G418 and FBS. At >80% confluency, aspirate the media from the flask and rinse with 10 mL Calcium/Magnesium-free PBS. Add 5 mL of 1× trypsin (prepared in Ca/Mg Free PBS) to T-225 flask and return flask to 37° C./CO2 incubator for 2-3 minutes. To dislodge the cell, gently bang the side of the flask with your hand. Triturate the cells completely and then transfer the cells to 25 mL complete media. Centrifuge at 1,500 rpm for 6 min followed by resuspension in complete growth media and determine cell concentration. For typical re-seeding, 4E6 cells/T-225 flask will attain >80% confluency in 4 days. Under ideal growth conditions and appropriate tissue culture practices, this cell line is stable for 40-45 passages.\nFluxOR Kit Components (Invitrogen F10017)\n• FluxOR™ Reagent (Component A) • FluxOR™ Assay Buffer (Component B)—10× Concentrate • PowerLoad™ Concentrate (Component C)—100× Concentrate • Probenecid (Component D)—Lyophilized sample is kept at −20° C. Water soluble, 100× after solubilization in 1 mL water. Store at 4° C. • FluxOR™ Chloride-free Buffer (Component E)—5× Concentrate • Potassium sulfate (K2SO4) Concentrate (Component F)—125 mM in water. Store at 4° C. • Thallium sulfate (Tl2SO4) Concentrate (Component G)—50 mM in water. Store at 4° C. • DMSO (dimethyl sulfoxide, Component H)—1 mL (100%) Reagent Preparation: FluxOR Working Solutions • 1000× FluxOR™ Reagent: Reconstitute a vial of component A in 100 μl DMSO; Mix well; Store 10 μl aliquots at −20° C. • 1× FluxOR™ Assay Buffer: Dilute Component B 10-fold with water; Adjust pH to 7.4 with Hepes/NaOH; Filter and store at 4° C. • Probenecid/Assay Buffer: 100 mL of 1× FluxOR™ Assay Buffer; 1 mL of reconstituted component D; Store at 4° C. • Loading Buffer (per microplate): 10 μl 1000× FluxOR™ Reagent; 100 μl component C; 10 mL Probenecid/Assay Buffer • Compound Buffer (per microplate): 20 mL Probenecid/Assay Buffer; 0.3 mM ouabain (10 mM ouabain in water can be stored in amber bottle/aluminum foil at room temperature); Test compound • 1× FluxOR™ Chloride-Free Buffer: Prepare 1× working solution in water. Can be stored at room temperature • Stimulant Buffer (prepared at 5× final concentration in 1× FluxOR™ Chloride-Free Buffer): 7.5 mM Thallium sulfate and 0.75 mM Potassium sulfate (to give a final assay concentration of 3 mM Thallium/0.3 mM Potassium). Store at 4° C. when not in use. Assay Protocol—\nThe ROMK channel functional thallium flux assay is performed in 384 wells, using the FLIPR-Tetra instrument. HEK-hKir1.1 cells are seeded in Poly-D-Lysine microplates and kept in a 37° C.-10% CO2 incubator overnight. On the day of the experiment, the growth media is replaced with the FluxOR™ reagent loading buffer and incubated, protected from light, at ambient temperature (23-25° C.) for 90 min. The loading buffer is replaced with assay buffer±test compound followed by 30 min incubation at ambient temperature, where the Thallium/Potassium stimulant is added to the microplate.\n1. Seed HEK-hKir1.1 cells (50 μl at 20,000 cells/well) in 384-well PDL coated Microplates\n2. Allow cells to adhere overnight in humidified 37° C./10% CO2 incubator\n3. Completely remove cell growth media from microplate and replace with 25 μl loading buffer\n4. Incubate Microplate at room temperature, protected form light, for 90 min\n5. Remove loading buffer and replace with 25 μl 1× Assay Buffer±test compound.\n6. Incubate microplate at room temperature, protected from light, for 30 min\n7. At FLIPR-Tetra 384: Add stimulant (Thallium/Potassium) solution to microplate and monitor fluorescence. […]", "units": {"IC50": "nM"}, "values": [{"smiles": "Cc1c([C@@H](O)CN2CCn3c(-c4ccc5c(c4)C[C@H](C)OC5=O)cnc3C2)ccc2c1COC2=O", "note": "[Example 44, (3S)-6-{7-[(2R)-2-hydroxy-2-(4-methyl-1-oxo-1,3-dihydro-2-benzofuran-5-yl)ethyl]-5,6,7,8-tetrahydroimidazo[1,2-a]pyrazin-3-yl}-3-methyl-3,4-dihydro-1H-isochromen-1-one]", "IC50": 301}, {"smiles": "Cc1cc(C#N)ccc1-c1ncc2c(n1)CCN(CC(O)c1ccc3c(c1C)COC3=O)C2", "note": "(stereo not shown) [Example 39, 4-{6-[2-hydroxy-2-(4-methyl-1-oxo-1,3-dihydro-2-benzofuran-5-yl)ethyl]-5,6,7,8-tetrahydropyrido[4,3-d]pyrimidin-2-yl}-3-methylbenzonitrile]", "IC50": 337}, {"smiles": "C[C@H]1Cc2cc(CCN3CCn4cc(-c5ccc6c(c5)COC6=O)nc4C3)ccc2C(=O)O1", "note": "[Example 19, (3S)-3-methyl-6-{2-[2-(1-oxo-1,3-dihydro-2-benzofuran-5-yl)-5,6-dihydroimidazo[1,2-a]pyrazin-7(8H)-yl]ethyl}-3,4-dihydro-1H-isochromen-1-one]", "IC50": 198}, {"smiles": "Cc1c(CCN2CCc3nc(-c4ccc(F)c(C#N)c4)ncc3C2)ccc2c1COC2=O", "note": "[Example 22]", "IC50": 441}, {"smiles": "Cc1c(C(O)CN2CCc3c(cnn3-c3ccc4c(c3)COC4=O)C2)ccc2c1COC2=O", "note": "(stereo not shown) [Example 33, 5-{1-hydroxy-2-[1-(1-oxo-1,3-dihydro-2-benzofuran-5-yl)-1,4,6,7-tetrahydro-5H-pyrazolo[4,3-c]pyridin-5-yl]ethyl}-4-methyl-2-benzofuran-1(3H)-one]", "IC50": 67}, {"smiles": "COc1cc(-c2cn3c(n2)CN(CC(O)c2ccc4c(c2C)COC4=O)CC3)ccc1C#N", "note": "(stereo not shown) [Example 35, 4-{7-[2-hydroxy-2-(4-methyl-1-oxo-1,3-dihydro-2-benzofuran-5-yl)ethyl]-5,6,7,8-tetrahydroimidazo[1,2-a]pyrazin-2-yl}-2-methoxybenzonitrile]", "IC50": 154}, {"smiles": "Cc1c(CCN2CCc3nc(-c4ccc(-n5cnnn5)cc4)ncc3C2)ccc2c1COC2=O", "note": "[Example 7, 6-[2-(4-methyl-1-oxo-1,3-dihydro-2-benzofuran-5-yl)ethyl]-2-[4-(1H-tetrazol-1-yl)phenyl]-5,6,7,8-tetrahydropyrido[4,3-d]pyrimidine-1,6-diium]", "IC50": 168}, {"smiles": "Cc1c(CCN2CCc3nc(-c4ccc(C#N)c(F)c4)ncc3C2)ccc2c1COC2=O", "note": "[Example 27]", "IC50": 70.2}, {"smiles": "Cc1c(CCN2CCn3cc(-c4ccc5c(c4)CCOC5=O)nc3C2)ccc2c1COC2=O", "note": "[Example 17, 6-{7-[2-(4-methyl-1-oxo-1,3-dihydro-2-benzofuran-5-yl)ethyl]-5,6,7,8-tetrahydroimidazo[1,2-a]pyrazin-2-yl}-3,4-dihydro-1H-isochromen-1-one]", "IC50": 654}, {"smiles": "Cc1c(CCN2CCn3c(nn(-c4ccc5c(c4)COC5=O)c3=O)C2)ccc2c1COC2=O", "note": "[Example 25, 7-[2-(4-methyl-1-oxo-1,3-dihydro-2-benzofuran-5-yl)ethyl]-2-(1-oxo-1,3-dihydro-2-benzofuran-5-yl)-5,6,7,8-tetrahydro[1,2,4]triazolo[4,3-a]pyrazin-3(2H)-one]", "IC50": 92.8}, {"smiles": "Cc1c(CCN2CCc3c(cnn3-c3ccc(C#N)c(F)c3)C2)ccc2c1COC2=O", "note": "[Example 30, 2-fluoro-4-(5-(2-(4-methyl-1-oxo-1,3-dihydroisobenzofuran-5-yl)ethyl)-4,5,6,7-tetrahydro-1H-pyrazolo[4,3-c]pyridin-1-yl)benzonitrile]", "IC50": 27.5}, {"smiles": "Cc1c(C(O)CN2CCc3nc(-c4ccc(C#N)c(F)c4)ncc3C2)ccc2c1COC2=O", "note": "(stereo not shown) [Example 38, 2-fluoro-4-{6-[2-hydroxy-2-(4-methyl-1-oxo-1,3-dihydro-2-benzofuran-5-yl)ethyl]-5,6,7,8-tetrahydropyrido[4,3-d]pyrimidin-2-yl}benzonitrile]", "IC50": 82}, {"smiles": "Cc1c(CCN2CCc3nc(-c4ccc(C#N)cc4F)ncc3C2)ccc2c1COC2=O", "note": "[Example 26]", "IC50": 314}, {"smiles": "COc1ccc(-c2ncc3c(n2)CCN(CCc2ccc4c(c2C)COC4=O)C3)cc1C#N", "note": "[Example 23]", "IC50": 208}, {"smiles": "Cc1c(CCN2CCn3c(-c4ccc5c(c4)COC5=O)cnc3C2)ccc2c1COC2=O", "note": "[Example 12, 4-methyl-5-{2-[3-(1-oxo-1,3-dihydro-2-benzofuran-5-yl)-5,6-dihydroimidazo[1,2-a]pyrazin-7(8H)-yl]ethyl}-2-benzofuran-1(3H)-one]", "IC50": 124}, {"smiles": "Cc1c(CCN2CCn3nc(-c4ccc5c(c4)COC5=O)nc3C2)ccc2c1COC2=O", "note": "[Example 16, 4-methyl-5-{2-[2-(1-oxo-1,3-dihydro-2-benzofuran-5-yl)-5,6-dihydro[1,2,4]triazolo[1,5-a]pyrazin-7(8H)-yl]ethyl}-2-benzofuran-1(3H)-one]", "IC50": 89}, {"smiles": "Cc1c(C(O)CN2CCn3c(nn(-c4ccc(C#N)c(F)c4)c3=O)C2)ccc2c1COC2=O", "note": "(stereo not shown) [Example 36, 2-fluoro-4-{7-[2-hydroxy-2-(4-methyl-1-oxo-1,3-dihydro-2-benzofuran-5-yl)ethyl]-3-oxo-5,6,7,8-tetrahydro[1,2,4]triazolo[4,3-a]pyrazin-2(3H)-yl}benzonitrile]", "IC50": 163}, {"smiles": "Cc1c(CCN2CCc3nc(-c4ccc(C#N)cn4)ncc3C2)ccc2c1COC2=O", "note": "[Example 21]", "IC50": 449}, {"smiles": "COc1cc(-c2nnc3n2CCN(CCc2ccc4c(c2C)COC4=O)C3)ccc1C#N", "note": "[Example 14, 2-methoxy-4-{7-[2-(4-methyl-1-oxo-1,3-dihydro-2-benzofuran-5-yl)ethyl]-5,6,7,8-tetrahydro[1,2,4]triazolo[4,3-a]pyrazin-3-yl}benzonitrile]", "IC50": 85}, {"smiles": "Cc1c([C@@H](O)CN2CCN3CC(c4ccc5c(c4)C[C@@H](C)OC5=O)C[C@H]3C2)ccc2c1COC2=O", "note": "(stereo partly drawn) [Example 46, (3R)-6-{(8aS)-2-[(2R)-2-hydroxy-2-(4-methyl-1-oxo-1,3-dihydro-2-benzofuran-5-yl)ethyl]octahydropyrrolo[1,2-a]pyrazin-7-yl}-3-methyl-3,4-dihydro-1H-isochromen-1-one]", "IC50": 81.4}, {"smiles": "Cc1c(CCN2CCn3cc(-c4ccc5c(c4)COC5=O)nc3C2)ccc2c1COC2=O", "note": "[Example 13, 4-methyl-5-{2-[2-(1-oxo-1,3-dihydro-2-benzofuran-5-yl)-5,6-dihydroimidazo[1,2-a]pyrazin-7(8H)-yl]ethyl}-2-benzofuran-1(3H)-one]", "IC50": 134}, {"smiles": "Cc1c(C(O)CN2CCn3c(nn(-c4ccc5c(c4)COC5=O)c3=O)C2)ccc2c1COC2=O", "note": "(stereo not shown) [Example 37, 7-[2-hydroxy-2-(4-methyl-1-oxo-1,3-dihydro-2-benzofuran-5-yl)ethyl]-2-(1-oxo-1,3-dihydro-2-benzofuran-5-yl)-5,6,7,8-tetrahydro[1,2,4]triazolo[4,3-a]pyrazin-3(2H)-one]", "IC50": 291}]}]}
